Data: US7396529B2, “Compositions and methods for regulating receptor clustering” (Mount Sinai Hospital, priority 2001, dated 2008)
Entries after “also recorded” stand apart in the source; their conditions may differ.

Key:
[1] = test system: protein tyrosine phosphorylation in T cells; experiment: TCR signaling: phosphotyrosine Western blot after anti-CD3ε bead stimulation; format: cell-based, mouse; settings: for Protein phosphorylation induced by anti-CD3ε antibody coated beads: Mgat5+/+ T cells, disaccharide 1/3 serial dilution from 2.4 mM, 1 min stimulation
[2] = target: Galectins; settings: range; 8; read-out: Dissociation constant for galectin binding; cited from earlier work
[3] = test system: TCR clustering in wild type (Mgat5+/+) T cells; experiment: TCR clustering at anti-CD3ε antibody-coated beads after disaccharide pre-incubation; format: cell-based, mouse; settings: for Enhanced TCR clustering observed (cells with clustering / cells examined): Mgat5+/+ T cells pre-incubated 20 min with 2 mM disaccharide, then anti-CD3ε antibody-coated beads 10 min, stained for TCR; for Effect on TCR clustering at the bead interface: wild type ex vivo T cells, 20 min disaccharide pre-incubation, 10 min anti-CD3ε bead stimulation
Protocol: TCR clustering: Six-micron polystyrene beads (Polysciences) in PBS were coated with hamster anti-mouse CD3ε antibody (Clone 2C11; Cederlane) at 2 μg/ml antibody followed by coating with 200 μg/ml bovine serum albumin (BSA). To measure TCR clustering, 5×10^4 T cells were incubated with 2.5×10^5 anti-CD3ε antibody-coated beads in 100 μl RPMI 1640+10% FCS at 37° C. for 10 minutes placed on poly-L-lysine coated cover slips. The cells were fixed with 10% formalin, stained with 2 μg/ml fluorescein isothiocyanate (FITC) labeled anti-TCRα/β antibody (Pharmigen), solubilized with 0.2% Triton X-100, labelled with rhodamine-phalloidin and Hoechst, and then visualized by deconvolution microscopy. […] To measure TCR internalization, purified splenic T cells stimulated with either 0.1 μg/ml^−1 anti-CD3 antibody or with 10 ng/ml PMA for varying lengths of time were harvested and stained with FITC-anti-TCRα/β. PMA concentrations were not limiting as 10, 50 and 100 ng/ml produced similar internalization and cell activation results. To measure actin reorganization, purified splenic T cells, stimulated with 0.1 μg/ml^−1 anti-CD3 for varying lengths of time, were fixed with 4% paraformaldehyde for 10 minutes, washed with PBS and stained with rhodamine-phalloidin and mean fluorescence intensity (MFI) was determined by FACS.

[4] = test system: T cell proliferation; settings: depletion of Mgat5 modified glycans; cited from earlier work
[5] = test system: EAE; settings: injected into mice; cited from earlier work

## N[C@H]1C(O)O[C@H](CO)[C@@H](O[C@@H]2O[C@H](CO)[C@H](O)[C@H](O)[C@H]2O)[C@@H]1O (stereo partly shown) [Lactosamine]
[1]
  Protein phosphorylation induced by anti-CD3ε antibody coated beads: enhanced protein phosphorylation
[2]
  Kd: ~100 µM

## OC[C@H]1O[C@@H](O[C@H]2[C@H](O)[C@@H](O)C(O)O[C@@H]2CO)[C@H](O)[C@@H](O)[C@H]1O (stereo partly shown) [lactose]
[3]
  Enhanced TCR clustering observed (cells with clustering / cells examined): 9/10
  Effect on TCR clustering at the bead interface: increased TCR clustering at the bead interface; also recorded: produced a phenocopy of Mgat5^−/− TCR clustering
[1]
  Protein phosphorylation induced by anti-CD3ε antibody coated beads: enhanced protein phosphorylation
[1]; Mgat5−/− T cells, data not shown
  Signaling in Mgat5−/− T cells: did not enhance signaling
[2]
  Kd: ~100 µM

## OC[C@H]1O[C@H](O[C@H]2[C@H](O)[C@@H](O)[C@H](O)O[C@@H]2CO)[C@H](O)[C@@H](O)[C@@H]1O [maltose]
[1]
  Protein phosphorylation induced by anti-CD3ε antibody coated beads: no effect

## OC[C@H]1O[C@@](CO)(O[C@H]2O[C@H](CO)[C@@H](O)[C@H](O)[C@H]2O)[C@@H](O)[C@@H]1O [sucrose]
[3]
  Enhanced TCR clustering observed (cells with clustering / cells examined): 1/10
  Effect on TCR clustering at the bead interface: not altered
[1]
  Protein phosphorylation induced by anti-CD3ε antibody coated beads: no effect

## O[C@H]1[C@H]2[C@H](O)CCCN2C[C@H]1O [swainsonine]
[4]
  Effect on antigen-dependent T cell proliferation: potentiates antigen-dependent T cell proliferation

## galectin-1: exogenously added beta-galactoside-binding lectin
[5]
  Effect on pathology of EAE: suppresses the pathology of EAE
